Patent US7960365B2, “Compounds with medicinal effects due to interaction with the glucocorticoid receptor” (N.V. Organon, priority 2006, dated 2011)

Molecular target: T1, recombinant human-GR (GR) (Homo sapiens, UniProt P04150)
T1 construct: purchased PanVera
T1 sequence (P04150 1-777): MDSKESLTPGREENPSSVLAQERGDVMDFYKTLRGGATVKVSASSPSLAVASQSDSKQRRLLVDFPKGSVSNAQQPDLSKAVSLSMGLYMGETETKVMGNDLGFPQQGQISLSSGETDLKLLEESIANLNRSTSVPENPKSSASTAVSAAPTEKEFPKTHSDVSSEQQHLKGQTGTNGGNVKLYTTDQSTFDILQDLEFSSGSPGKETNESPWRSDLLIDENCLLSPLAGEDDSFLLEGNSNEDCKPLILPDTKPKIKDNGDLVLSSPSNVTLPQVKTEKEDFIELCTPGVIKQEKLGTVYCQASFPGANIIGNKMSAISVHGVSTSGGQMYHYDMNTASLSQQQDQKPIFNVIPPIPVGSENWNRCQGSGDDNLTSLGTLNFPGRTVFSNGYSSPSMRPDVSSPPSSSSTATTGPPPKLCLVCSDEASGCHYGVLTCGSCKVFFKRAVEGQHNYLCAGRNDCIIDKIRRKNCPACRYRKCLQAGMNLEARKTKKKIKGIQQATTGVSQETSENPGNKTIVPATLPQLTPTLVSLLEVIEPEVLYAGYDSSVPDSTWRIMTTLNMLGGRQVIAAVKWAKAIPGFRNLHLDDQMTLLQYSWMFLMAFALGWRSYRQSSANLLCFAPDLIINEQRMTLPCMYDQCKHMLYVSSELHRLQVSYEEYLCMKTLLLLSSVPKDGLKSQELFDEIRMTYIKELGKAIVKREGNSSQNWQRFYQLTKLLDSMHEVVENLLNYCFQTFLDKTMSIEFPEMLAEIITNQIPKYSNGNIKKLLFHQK
Assay: Glucocorticoid Receptor Competitor Assay kit (PanVera), fluorescence polarisation competition binding
Details: fluormone GS1 1 nM, GR 4 nM, 90 minutes at room temperature
Experimental: The affinity of compounds was tested using a Glucocorticoid Receptor Competitor Assay kit (PanVera®). Components of the kit were thawed from −80° C. on ice (Fluormone GS1, recombinant human-GR (GR)) or at room temperature (GR screening buffer, stabilising peptide and DTT). 10 mM test compounds were manually diluted to 20 μM then serially diluted to a final concentration range of 10 μM to 0.1 nM using the BioMek 2000 (Beckman-Coulter) into a black walled 384 welled plate (Matrix technologies). In the following order: fluormone GS1 (1 nM final concentration) is added to all wells excluding the buffer control wells, GR (4 nM final concentration) is added to all wells except minimum and buffer control wells, cortisol (10 μM final concentration) is added to fluormone GS1 control wells only, buffer is added to all wells to a final volume of 40 μl. The plate is covered and incubated at room temperature with agitation for 90 minutes. Readings were taken using the Analyst (LJL) in fluorescence polarisation reading mode. The MilliP ratio is calculated from cps readings obtained in parallel and perpendicular mode. The percent effect of the bound ligand is calculated at each concentration and the dose response curves plotted allowing the EC50 to be calculated. […]

With `CC#C[C@]1(O)CC[C@H]2[C@@H]3CCC4=CC(=O)CCC4=C3[C@@H](c3ccc4c(c3)OCO4)C[C@@]21C` [(11beta, 17beta)-11-(1,3-benzodioxol-5-yl)-17-hydroxy-17-(1-propynyl)estra-4,9-dien-3-one] the EC50 was 10 nM.
